From article PMC10792626 (Saudi Pharmaceutical Journal : SPJ, 2023)
In brackets after ≈: the same amount, converted by molar mass.

molecular target: α-amylase; assay: In vitro α-amylase inhibition assay; assay type: biochemical; conditions: phosphate buffer pH 6.8, 37 °C

Compound | IC50 α-amylase [µg/mL]
C[C@@H]1O[C@@H](OC[C@H]2O[C@@H](Oc3c(-c4ccc(O)c(O)c4)oc4cc(O)cc(O)c4c3=O)[C@H](O)[C@@H](O)[C@@H]2O)[C@H](O)[C@H](O)[C@H]1O [Compound 5, Rutin] | 177.2 ± 2.01 (≈ 290 µM)
O=c1c(O)c(-c2ccc(O)cc2)oc2cc(O)cc(O)c12 [Compound 3, Kaempferol] | 135.2 ± 1.84 (≈ 472 µM)
O=C(/C=C/c1ccc(O)cc1)OC[C@H]1O[C@@H](Oc2c(-c3ccc(O)cc3)oc3cc(O)cc(O)c3c2=O)[C@H](O)[C@@H](O)[C@@H]1O [Compound 2, Tiliroside] | 180.6 ± 2.04 (≈ 304 µM)
Quercetin [Compound 4] | 118.4 ± 1.38
